In patent US20100183600A1, “RAF Inhibitors and Their Uses” (ARQULE, INC., priority 2008, published 2010):

Key:
Test in all cases: Cell growth inhibition assay (MTS)
Format in all cases: cell-based
K562 = conditions: Homo sapiens; K562, CML
Summary of the method: (§1)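 Absorbance of formazan at 492 nm, produced by metabolically active cells reducing MTS with PMS over 4 hr, served as the growth read-out after 72 hours of compound treatment. The IC50 was defined as the concentration halving absorbance.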

AN3CA = conditions: Homo sapiens, AN3-CA, endometrial
Summary of the method: as §1

ASPC-1 = conditions: Homo sapiens, ASPC1; ASPC-1, pancreas
Summary of the method: as §1

HCT-116 = conditions: Homo sapiens; HCT-116, colon
Summary of the method: as §1

CC5292 = conditions: Homo sapiens; CC5292, MiT
Summary of the method: as §1

HEP-3B = conditions: Homo sapiens, Hep3B, liver
Summary of the method: as §1

BDCM = conditions: Homo sapiens, lymphoblast
Summary of the method: as §1

MKN-45 = conditions: Homo sapiens; MKN-45, stomach
Summary of the method: as §1

RT4 = conditions: RT-4; RT4, human urinary bladder cell carcinoma
Summary of the method: as §1

GI50 (K562): 9.86 µM
GI50 (ASPC-1): 6.33 µM
GI50 (HCT-116): 6.61 µM
GI50 (HEP-3B): 3.16 µM
GI50 (MKN-45): 21.4 µM
Structure (SMILES): Cn1ccc(S(=O)(=O)N2CCC[C@@H](Nc3nccc(-c4c(-c5cccc(OCOP(=O)(O)O)c5)nc5occn45)n3)C2)n1 [Compound 19, (R)-(3-(5-(2-(1-(1-methyl-1H-pyrazol-3-ylsulfonyl)piperidin-3-ylamino)pyrimidin-4-yl)imidazo[2,1-b]oxazol-6-yl)phenoxy)methyl dihydrogen phosphate]
GI50 (AN3CA): 20.1 µM
GI50 (CC5292): 8.2 µM
GI50 (BDCM): 32.7 µM
GI50 (RT4): 10 µM
